Data: patent US20050085554A1, “Methods of treating disease through the administration of a manzamine analog or derivative” (priority 2003, published 2005)
In brackets after ≈: the same amount, converted by molar mass. Where two headings read alike, the source gives them in different places.

Columns and labels:
[1] = tested on: Plasmodium falciparum (D6 clone); assay: Antimalarial activity in vitro, D6 clone; type: cell-based; details: for IC50: Plasmodium falciparum, D6
[2] = tested on: P. falciparum (chlorine-resistant W2 clone); assay: Antimalarial activity in vitro, W2 clone; type: cell-based, Plasmodium falciparum; details: for IC50: Plasmodium falciparum
[3] = tested on: Mycobacterium tuberculosis H37Rv; assay: In vitro antimycobacterial activity (Microplate Alamar Blue Assay), MIC; type: cell-based; details: for MIC: Mycobacterium tuberculosis, H37RV
[4] = tested on: HIV-1LAV; assay: Anti-HIV-1 activity in PBM cells; type: cell-based, human immunodeficiency virus (HIV-1); details: T5
Experimental: Anti-HIV-1 activity was determined in PBM cells as described previously. See, Stock solutions (20 or 40 mM) of the compounds were prepared in sterile DMSO and then diluted to the desired concentration in growth medium. Cells were infected with the prototype HIV-1LAV at a multiplicity of infection of 0.1. Details on the infection of cells and assessment of antiviral effects was described previously. See, Schinazi, R. F.; McMillan, A.; Cannon, D.; Mathis, R.; Lloyd, R. M.; Peck, A.; Sommadossi, J.-P.; Clair, M. S.; Wilson, J.; Furman, P. A.; Painter G.; Choi, W.-B.; Liotta, D. C. Antimicrob. Agents Chemother. 1992, 36, 2423-2431 and Schinazi, R. F.; Sommadossi, J.-P.; Saalmann, V.; Cannon, D. L.; Xie, M.-Y.; Hart, G. C.; Smith, G. A.; Hahn, E. F. Antimicrob. Agents Chemother. 1990, 34, 1061-1067.

[5] = tested on: Leishmania donovani; assay: Antileishmanial activity in vitro; type: cell-based
[6] = tested on: Mycobacterium intracellulare; assay: Activity against M. intracellulare; type: cell-based; details: for IC50 M. intracellulare: T5, NA = not active
[7] = tested on: Cryptococcus neoformans; assay: Antifungal activity against Cryptococcus neoformans; type: cell-based; details: T5; NA = not active
[8] = tested on: methicillin-resistant Staphylococcus aureus; assay: Antibacterial activity against MRS; type: cell-based; details: T5; NA = not active
[9] = tested on: Staphylococcus aureus; assay: Antibacterial activity against S. aureus; type: cell-based; details: T5; NA = not active
[10] = T4, NA = not active, read-out: Plasmodium falciparum (D6 clone) IC 50

## CCN(CC)CCCC(C)Nc1ccnc2cc(Cl)ccc12 (stereo not shown) [Chloroquine, reference compound]
[1]; [10]
  IC50: 0.0155 µg/mL (≈ 0.0485 µM)
[1]; T6
  IC50: 0.01 µg/mL (≈ 0.0313 µM)
[2]; W2, read-out: P. falciparum (chlorine-resistant W2 clone) IC 50
  IC50: 0.17 µg/mL (≈ 0.531 µM)
[2]; W2, T6, read-out: P. falciparum (W2 clone) IC50
  IC50: 0.14 µg/mL (≈ 0.438 µM)

## O=C1CCCN2[C@@H](CC1)C[C@]13CN4CCCC/C=C\CC[C@](O)(C=C(c5nccc6c5[nH]c5ccccc56)[C@@H]1CC4)[C@H]23 [Manzamine E]
[3]; T4
  Mycobacterium Tuberculosis (H37Rv) MIC: 3.76 µg/mL
[4]
  EC50: 13.1 µM
[1]; T4, NA = not active
  Plasmodium falciparum (D6 clone) IC 50: 3.4 µg/mL
[2]; T4, NA = not active
  P. falciparum (chlorine-resistant W2 clone) IC 50: 4.76 µg/mL
[5]; T4
  Leishmania donovani IC 50: 3.8 µg/mL
  Leishmania donovani IC 90: 6.8 µg/mL
[6]
  IC50 M. intracellulare: 12.5 µg/mL (≈ 22.1 µM)

## CCCOC12C=C(c3nccc4c3[nH]c3ccccc34)C3CCN(CCCCC=CCC1)CC31CC3C=CCCCCN3C21 (stereo not shown) [12-O-propylmanzamine-A]
[5]; T7
  Leishmania donovani IC 50: 4.5 µg/mL
  Leishmania donovani IC 90: 8.7 µg/mL

## O=CC1=C[C@@]2(O)CC/C=C\CCCCN3CC[C@@H]1[C@]1(CC4/C=C\CCCCN4[C@H]12)C3 (stereo partly shown) [Ircinal A]
[3]; T4
  Mycobacterium Tuberculosis (H37Rv) MIC: 30.2 µg/mL
[4]
  EC50: 6.8 µM
[6]
  IC50 M. intracellulare: 50 µg/mL (≈ 122 µM)

## 12-O-methylmanzamine-A
[1]; T7
  Plasmodium falciparum (D6 clone) IC 50: 1.9 µg/mL
[2]; T7
  P. falciparum (chlorine-resistant W2 clone) IC 50: 1 µg/mL
[5]; T7
  Leishmania donovani IC 50: 6.5 µg/mL
  Leishmania donovani IC 90: 16 µg/mL
[6]; T7, first value of a cell '2.0/5.0'
  M. intracellulare IC50: 2.0 µg/mL
[6]; T7, value after the slash under head IC50
  M. intracellulare, second value of the cell (presumably MIC): 5.0 µg/mL

## C[C@@H]1CC[C@H]2[C@@H](C)C(=O)O[C@@H]3O[C@@]4(C)CC[C@@H]1[C@]32OO4 [Artemisinin, reference compound]
[1]; [10]
  IC50: 0.01 µg/mL (≈ 0.0354 µM)
[2]; W2, T4, NA = not active, read-out: P. falciparum (chlorine-resistant W2 clone) IC 50
  IC50: 0.0063 µg/mL (≈ 0.0223 µM)

## O=C1CCCN2[C@@H](CC1)C[C@]13CN4CCCC/C=C\CC[C@](O)(C=C(c5nccc6c5[nH]c5ccc(O)cc56)[C@@H]1CC4)[C@H]23 [6-Hydroxymanzamine E]
[3]; T4
  Mycobacterium Tuberculosis (H37Rv) MIC: 0.4 µg/mL
[7]
  Antifungal IC50 C. neoformans: 5.5 µg/mL
[1]; T4, NA = not active
  Plasmodium falciparum (D6 clone) IC 50: 0.78 µg/mL
[2]; T4, NA = not active
  P. falciparum (chlorine-resistant W2 clone) IC 50: 0.87 µg/mL
[5]; T4
  Leishmania donovani IC 50: 2.5 µg/mL
  Leishmania donovani IC 90: 4.3 µg/mL
[6]
  IC50 M. intracellulare: 3.5 µg/mL (≈ 6.03 µM)

## OCC1=C[C@]2(O)CC/C=C\CCCCN3CC[C@@H]1[C@@]1(C[C@H]4/C=C\CCCCN4[C@@H]12)C3 [Ircinol A]
[3]; T4
  Mycobacterium Tuberculosis (H37Rv) MIC: 1.93 µg/mL
[4]
  EC50: 4.3 µM
[1]; T4, NA = not active
  Plasmodium falciparum (D6 clone) IC 50: 2.4 µg/mL
[2]; T4, NA = not active
  P. falciparum (chlorine-resistant W2 clone) IC 50: 3.1 µg/mL
[8]
  Antibacterial IC50 MRS: 30 µg/mL
[6]
  IC50 M. intracellulare: 50 µg/mL (≈ 121 µM)

## CCCCOC12C=C(c3nccc4c3[nH]c3ccccc34)C3CCN(CCCCC=CCC1)CC31CC3C=CCCCCN3C21 (stereo not shown) [12-O-butylmanzamine-A]
[5]; T7
  Leishmania donovani IC 50: 4.7 µg/mL
  Leishmania donovani IC 90: 9.1 µg/mL

## CO[C@H]1/C=C/O[C@@]2(C)Oc3c(C)c(O)c4c(O)c(c(/C=N/N5CCN(C)CC5)c(O)c4c3C2=O)NC(=O)/C(C)=C\C=C\[C@H](C)[C@H](O)[C@@H](C)[C@@H](O)[C@@H](C)[C@H](OC(C)=O)[C@@H]1C [Rifampin, reference compound]
[3]; T4, read-out: Mycobacterium Tuberculosis (H37Rv) MIC
  MIC: 0.5 µg/mL (≈ 0.608 µM)
[3]; T6, read-out: Mycobacterium tuberculosis MIC
  MIC: 0.24 µg/mL (≈ 0.292 µM)
[3]; rifampin = positive control, read-out: MIC against Mycobacterium tuberculosis (Mtb)
  MIC: 0.16 µg/mL (≈ 0.194 µM)

## O[C@]12C=C(c3nccc4c3[nH]c3ccccc34)C3CCN(CCCC/C=C\CC1)C[C@@]31C[C@]34CC[C@H](CCCN3[C@H]12)O4 (stereo partly shown) [6-Deoxymanzamine X]
[3]; T4
  Mycobacterium Tuberculosis (H37Rv) MIC: 1.77 µg/mL
[4]
  EC50: 1.6 µM
[7]
  Antifungal IC50 C. neoformans: 2.0 µg/mL
[1]; T4, NA = not active
  Plasmodium falciparum (D6 clone) IC 50: 1.3 µg/mL
[2]; T4, NA = not active
  P. falciparum (chlorine-resistant W2 clone) IC 50: 1.4 µg/mL
[5]; T4
  Leishmania donovani IC 50: 3.2 µg/mL
  Leishmania donovani IC 90: 7.5 µg/mL
[9]
  Antibacterial IC50 S. aureus: 1.5 µg/mL
[8]
  Antibacterial IC50 MRS: 1.5 µg/mL
[6]
  IC50 M. intracellulare: 6.25 µg/mL (≈ 11.1 µM)
